The values that follow come from patent US7456185B2, “Substituted quinazoline compounds useful as p38 kinase inhibitors” (Roche Palo Alto LLC, priority 2003, dated 2008).

The molecule `CCC(CO)(CO)Nc1ncc2cc(Oc3ccc(F)cc3F)ccc2n1` [Example 1, 2-[6-(2,4-Difluoro-phenoxy)-quinazolin-2-ylamino]-2-ethyl-propane-1,3-diol] yielded a melting point of 110 to 112.9 °C.
With `CCOc1ccc2nc(NCC[S+](C)[O-])ncc2c1` (centres unmarked) [Example 11, (6-Ethoxy-quinazolin-2-yl)-(2-methanesulfinyl-ethyl)-amine], the melting point was 152.7 to 154.6 °C.
`OCC(O)CNc1ncc2cc(Oc3ccc(F)cc3F)ccc2n1` (centres unmarked) [Example 4, 3-[6-(2,4-Difluoro-phenoxy)-quinazolin-2-ylamino]-propane-1,2-diol] gave a melting point of 161.5 to 162.7 °C.
The molecule `CS(=O)(=O)CCNc1ncc2cc(Oc3ccc(F)cc3F)ccc2n1` [Example 5] had a melting point of 160.1 to 161.5 °C.
Take `OC1CCC(Nc2ncc3cc(Oc4ccc(F)cc4F)ccc3n2)CC1` (centres unmarked) [Example 8, 4-[6-(2,4-Difluoro-phenoxy)-quinazolin-2-ylamino]-cyclohexanol]: the melting point was 176.2 to 176.8 °C.
As to `CC(C)Nc1ncc2cc(Oc3ccc(F)cc3F)ccc2n1` [Example 2], the melting point lay in the range of 160 to 162.6 °C.
The molecule `CS(=O)(=O)N1CCC(Nc2ncc3cc(Oc4ccc(F)cc4F)ccc3n2)CC1` [Example 6] showed a melting point of 173.9 to 177.1 °C.
The result for `OCCC(CCO)Nc1ncc2cc(Oc3ccc(F)cc3F)ccc2n1` [Example 3, 3-[6-(2,4-Difluorophenoxy)-quinazolin-2-ylamino]-pentane-1,5-diol] reads 112.9 to 113.6 °C.
